Assay results: patent publication US10106516B2, “PDE10 inhibitors and related compositions and methods” (Omeros Corporation, priority 2010, dated 2018)

Tests used:
[1] = target: PDE10; conditions: PDE10, in vitro binding studies; read-out: dissociation constant (Kd) for cGMP binding; cited from earlier work
[2] = target: T1, PDE10 (Homo sapiens, UniProt Q9Y233); assay: PDE10 biochemical assay (two-step Thompson and Appleman method or SPA); conditions: PDE10 inhibition
T1 construct: made in house; host or cells: Sf9 insect cells (baculovirus)
T1 sequence (Q9Y233 1-779 isoform Q9Y233-1): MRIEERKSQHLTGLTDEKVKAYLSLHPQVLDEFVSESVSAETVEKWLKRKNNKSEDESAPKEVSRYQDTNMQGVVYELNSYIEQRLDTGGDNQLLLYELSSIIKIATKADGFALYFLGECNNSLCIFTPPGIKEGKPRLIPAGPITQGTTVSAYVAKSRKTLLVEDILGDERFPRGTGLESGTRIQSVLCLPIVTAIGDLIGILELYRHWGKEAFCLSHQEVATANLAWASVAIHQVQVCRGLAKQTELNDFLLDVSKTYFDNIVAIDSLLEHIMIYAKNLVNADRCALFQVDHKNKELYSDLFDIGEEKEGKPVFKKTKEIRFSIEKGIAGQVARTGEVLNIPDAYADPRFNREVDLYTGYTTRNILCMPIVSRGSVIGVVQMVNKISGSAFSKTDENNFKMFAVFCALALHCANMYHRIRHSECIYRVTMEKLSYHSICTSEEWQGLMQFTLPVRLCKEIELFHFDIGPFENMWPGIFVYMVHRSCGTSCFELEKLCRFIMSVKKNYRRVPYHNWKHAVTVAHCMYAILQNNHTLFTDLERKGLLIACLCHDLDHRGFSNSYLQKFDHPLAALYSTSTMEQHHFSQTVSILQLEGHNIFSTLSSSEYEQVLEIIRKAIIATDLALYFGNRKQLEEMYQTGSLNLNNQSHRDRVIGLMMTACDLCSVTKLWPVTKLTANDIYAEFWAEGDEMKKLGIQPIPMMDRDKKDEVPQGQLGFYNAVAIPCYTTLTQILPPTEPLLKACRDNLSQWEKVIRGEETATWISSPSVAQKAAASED

[3] = system: C57BL/6 male mice; assay: PCP-induced hyperactivity model of psychosis; assay type: in vivo; conditions: vs vehicle+PCP control
Method: (§1) Dosing of the compounds is by intraperitoneal (i.p.) injection or oral gavage (p.o.). Intraperitoneal injection is accomplished by restraining the animal, exposing the abdomen and inserting the needle just above the knees on the mouse's right side. Oral gavage is performed by restraining the animal in such a way that its head is tilted back and the esophagus is relatively straight. The gavage needle (20 G×1.5″, Cadence Science) is inserted into the mouth in line with the body and gently pushed along the esophagus and into the stomach. If resistance is encountered the needle is removed and reinserted.
Psychostimulant-induced hyperactivity is measured by injecting animals with PCP and monitoring the animals' activity levels in VersaMax chambers (Accuscan Instruments, Columbus, Ohio) measuring 40×40 cm. Locomotor activity is detected by photobeam breaks as the animal crosses each beam. The animal is placed in the center of the field and left undisturbed for 20 minutes to measure its spontaneous activity in a novel environment. Measurements used to assess locomotor activity include: horizontal activity, total distance traveled, vertical activity (rearing events—animal raises up on hindlimbs), rotation, stereotypy, and distance traveled in the center compared to total distance traveled (center:total distance ratio). The NMDA antagonist PCP induces a psychosis-like syndrome manifest as hyperactivity and increased stereotypic behavior. Known antipsychotics are able to reverse psychostimulant-induced hyperactivity and stereotypy.
(§2) C57BL/6 male mice were given either compound 1-1 or vehicle by intraperitoneal injection (FIG. 1) or oral gavage (FIG. 2). Twenty minutes (for i.p.) or forty minutes (for p.o.) later, they were injected with PCP (5 mg/kg, i.p.). Ten minutes later, the mice were placed in activity chambers and their locomotor activity in the horizontal dimension was monitored by infrared beam breaks for 20 min (5 consecutive 4-minute intervals (INT) as indicated).
as §2, with “2-1” for “1-1”, “3)” for “1)”, “4).” for “2).”, “40” for “forty”
as §2, with “11-1” for “1-1”, “injection. Five” for “injection (FIG. 1) or oral gavage (FIG. 2). Twenty”, “later” for “(for i.p.) or forty minutes (for p.o.) later,”

[4] = system: C57BL/6 male mice; assay: Conditioned avoidance response (CAR) model of psychosis; assay type: in vivo; conditions: 12 mg/kg oral gavage, 30 minutes before testing; vs vehicle
Method: as §1
Conditioned avoidance response (CAR) is a behavioral test to evaluate the antipsychotic effect of a test compound. It utilizes a shuttle box (Med Associates, St. Albans, Vt.) with two identical chambers separated by a retractable door. Each chamber is fitted with a metal grid floor that is capable of delivering electric shocks independently. A computer program is used to implement the testing paradigm as well as record the animal's movement between the two chambers through infrared beam sensors. The testing paradigm is as follows. A mouse is placed into one chamber. A light (conditioned stimulus, CS) comes on. Five seconds later, mild electric shocks (0.4 mA; (unconditioned stimulus, US) are delivered to the chamber where the mouse is located (as detected by infrared beams) until the mouse escapes to the adjacent chamber or until 10 sec has elapsed. The US and CS always co-terminate. With randomized inter-trial intervals averaging 15 sec, 30 such CS-US pairing trials are given to each mouse each day. For each trial, an escape response is registered if the mouse crosses to the other chamber after being shocked (i.e., during the 10-sec US period), and an avoidance response is registered if the mouse crosses to the other chamber during the first 5-sec CS only period. The animals are trained in this paradigm for 30-40 days, during which the average percentage of avoidance responses will improve to 80-90%. […] These trained animals are then used for compound testing with the same paradigm.
C57BL/6 male mice were trained in the CAR paradigm to predict and avoid the noxious stimulus (foot shock), reaching a plateau of approximately 25 avoidance responses per 30 trials each day. […] Vehicle treatment and compound treatment were given to the same animals on alternating days, and the effect of compound in reducing avoidance response was analyzed through within-subject comparison (paired t-test).
C57BL/6 male mice were trained in the CAR paradigm to predict and avoid the noxious stimulus (foot shock), reaching a plateau of approximately 25-28 avoidance responses per 30 trials (“training plateau”) each day. […] Vehicle treatment and compound treatment were given to the same animals on alternating days, and the effect of compound in reducing avoidance response was analyzed through within-subject comparison (paired t-test).

[5] = system: PDE10; conditions: Soderling and Beavo 2000, read-out: IC50 (50% inhibitory concentration); cited from earlier work
[6] = 10 mg/kg i.p., 20 min before PCP (5 mg/kg, i.p.)

## Nc1nc2c(ncn2[C@@H]2O[C@@H]3COP(=O)(O)O[C@H]3[C@H]2O)c(=O)[nH]1 [cGMP]
[1]
  Kd: > 9000 nM

## COc1cc(-c2coc(C(=O)C(OC)c3ccc(-c4nnc(C)o4)cc3)n2)cc(OC)c1Br (centres unmarked) [Compound 11-1, 1-(4-(4-Bromo-3,5-Dimethoxyphenyl)Oxazol-2-Yl)-2-Methoxy-2-(4-(5-Methyl-1,3,4-Oxadiazol-2-Yl)Phenyl)Ethanone]
[2]
  IC50: ≤ 1000 nM
[3]; 10 mg/kg i.p., 5 min before PCP (5 mg/kg, i.p.)
  reduction of PCP-induced hyperactivity (horizontal locomotor activity): significantly reduces

## COc1cc(-c2csc(C(=O)C(OC)c3ccc(N4CCOCC4)cc3)n2)cc(OC)c1Br (centres unmarked) [Compound 1-1, 1-(4-(4-Bromo-3,5-Dimethoxyphenyl)Thiazol-2-Yl)-2-Methoxy-2-(4-Morpholinophenyl)Ethanone]
[2]
  IC50: ≤ 1000 nM
[3]; [6]
  reduction of PCP-induced hyperactivity (horizontal locomotor activity): significantly reduces
[3]; oral gavage, dose not given, 40 min before PCP (5 mg/kg, i.p.)
  reduction of PCP-induced hyperactivity (horizontal locomotor activity): effective

## COc1cc(-c2coc(C(=O)C(OC)c3ccc(N4CCOCC4)cc3)n2)cc(OC)c1Br (centres unmarked) [Compound 2-1, 1-(4-(4-Bromo-3,5-Dimethoxyphenyl)Oxazol-2-Yl)-2-Methoxy-2-(4-Morpholinophenyl)-Ethanone]
[2]
  IC50: ≤ 1000 nM
[4]
  reduction of number of avoidance responses (CAR): significantly reduces
[3]; [6]
  reduction of PCP-induced hyperactivity (horizontal locomotor activity): significantly reduces
[3]; 10 mg/kg oral gavage, 40 min before PCP (5 mg/kg, i.p.)
  reduction of PCP-induced hyperactivity (horizontal locomotor activity): effective

## CC(C)Cn1c(=O)n(C)c(=O)c2[nH]cnc21 [IBMX]
[5]
  IC50: 2600 nM
